Measurements published in patent US7109193B2, “Tricyclic diazepines tocolytic oxytocin receptor antagonists” (Wyeth, priority 2001, dated 2006).

Molecular target: T1, human vasopressin V2 receptor subtype (Homo sapiens, UniProt P30518)
T1 construct: host or cells: CHO cells (pZeoSV vector)
Test: Vasopressin binding in Chinese Hamster Ovary cell membranes expressing human vasopressin V2 subtype receptors
Conditions: 100 nM, CHO cell membranes, [3H]arginine vasopressin, values without parentheses
Description: Vasopressin Binding in Chinese Hamster Ovary Cell Membranes Expressing Human Vasopressin V2 Subtype Receptors
Chinese Hamster Ovary (CHO) cells stably transfected with the human V2 subtype receptors were obtained from M. Thibonnier, Case Western Reserve University School of Medicine, Cleveland, Ohio.
A. Passaging and Amplification of Cells:
The trypsin is removed by aspiration and the cells dislodged by tapping. Cell Culture medium (e.g. 30 mL for 1:30 split) is immediately added and mixed well to inactivate trypsin. 1 mL of detached cells is added to new culture flasks containing fresh Cell Culture medium (e.g. into 25 mL per T-150 flask), and mixed gently. The cells are incubated at 37° C. in 5% CO2. The medium is changed at 3 to 4 day interval (or as appropriate). […] All steps are done under sterile conditions. B. Membrane Preparation: The cells are washed twice gently with Hank's Balanced Salt solution (e.g. use 10 mL per T-150 flask). […] The contents are transferred to centrifuge tubes (50 mL) kept in ice bath. All subsequent steps are done at 4° C. The tubes are centrifuged at 300×g for 15 min (1380 rpm on SORVAL, Model RT6000D, using the rotor for 50 mL tubes). The supernatant is discarded and the cells suspended in homogenizing buffer (10 mM Tris-HCl containing 0.25 M sucrose and 1 mM EDTA, pH 7.4) ensuring that the volume of the buffer is about ten times the volume of the cell pellet. The cells are pooled into a centrifuge tube (50 mL) and homogenized with a Polytron at setting 6 for 10 sec. The homogenate is transferred into a Potter-Elvjehm homogenizer and homogenized with 3 strokes. The homogenate is centrifuged at 1500×g for 60 min at 4° C. (3100 rpm using SORVAL, model RT6000D, using the rotor for 50 mL tubes). The pellet is discarded. The supernatant is centrifuged at 100,000×g for 60 min. at 4° C. (Beckman L8-80M ultracentrifuge; spin at 37,500 rpm with rotor type 70 Ti for 50 mL tubes; 38,000 rpm with type 80Ti for 15 mL tubes; or 35,800 rpm with rotor type 45Ti). The supernantant is discarded and the pellet suspended in 3 to 4 mL of Tris buffer (50 mM TRIS-HCl, pH 7.4). The protein content is estimated by the Bradford or Lowry method. The volume of the membrane suspension is adjusted with the membrane buffer (50 mM Tris-HCl containing 0.1% BSA and 0.1 mM PMSF) to give 3.0 mg/mL (or as appropriate) of protein. The membranes are aliquoted and stored at −70° C. C. Radioligand Binding Assay: In wells of a 96-well format microtiter plate, is added 90, 110 or 130 μL (to make up a final volume of 200 μL) of assay buffer containing 50 mM of Tris-HCl (pH 7.4), […], 1 mg % aprotinin, 1 mg % leupeptin, 2 mg % 1,10-phenanthroline, 10 mg % trypsin inhibitor, and 0.1 mM PMSF. The inhibitors are added on the day of the experiment. The components are mixed at room temperature, and then kept in ice bath following adjustment of the pH to 7.4. […] For vasopressin and other peptide ligands 20 μL of 50% DMSO is added and the assay buffer volume is adjusted accordingly. To each well is added 50 μL of frozen membrane suspension thawed immediately prior to use and diluted in assay buffer to the required concentration (equivalent to 25 to 50 μg of protein/well as needed). 20 μL of 8 nM [^3H]arginine vasopressin ligand in the assay buffer, prepared just before use is added and incubated at room temperature for 60 min. shaking the plate on a mechanical shaker for the first 15 min. The incubation is stopped by rapid filtration of the plate contents followed by wash with ice-cold buffer (50 mM Tris-HCl, pH 7.4) using a cell harvester (Tomtek and Printed filtermat-B filter paper). The filter paper is thoroughly dried (7–12 min. in a microwave oven) and impregnated with MeltiLex B/H melt-on scintillation wax sheets and the radioactivity counted in a betaplate scintillation counter.

T1 sequence (P30518 whole entry): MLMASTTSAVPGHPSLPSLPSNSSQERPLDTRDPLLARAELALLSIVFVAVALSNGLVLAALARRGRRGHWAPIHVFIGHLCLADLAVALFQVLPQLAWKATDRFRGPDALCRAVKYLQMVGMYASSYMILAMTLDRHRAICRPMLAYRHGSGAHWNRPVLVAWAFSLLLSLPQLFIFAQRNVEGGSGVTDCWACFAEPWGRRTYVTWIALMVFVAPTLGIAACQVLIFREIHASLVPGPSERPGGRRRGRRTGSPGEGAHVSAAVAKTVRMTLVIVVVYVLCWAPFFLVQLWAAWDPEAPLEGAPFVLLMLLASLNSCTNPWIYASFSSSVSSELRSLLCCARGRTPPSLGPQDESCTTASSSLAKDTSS

Row | Compound | inhibition at 0.1 µM [%] | V2 % inhibition @ 100 nM [%]
1 | COc1cccc(-c2ccc(C(=O)N3Cc4ccc(C(=O)N5CCC(N6CCCC6)CC5)n4Cc4ccccc43)cc2OC)c1 [Example 146, {10-[(2,3′-Dimethoxy[1,1′-biphenyl]-4-yl)carbonyl]-10,11-dihydro-5H-pyrrolo[2,1-c][1,4]benzodiazepin-3-yl}[4-(1-pyrrolidinyl)-1-piperidinyl]methanone] | 12 | –
2 | COc1ccccc1-c1ccc(C(=O)N2Cc3ccc(C(=O)N4CCC(N5CCCC5)CC4)n3Cc3ccccc32)cc1 [Example 140, {10-[(2′-Methoxy[1,1′-biphenyl]-4-yl)carbonyl]-10,11-dihydro-5H-pyrrolo[2,1-c][1,4]benzodiazepin-3-yl}[4-(1-pyrrolidinyl)-1-piperidinyl]methanone] | 29 | –
3 | COc1cccc(-c2ccc(C(=O)N3Cc4ccc(C(=O)N5CC[C@@H](N(C)C)C5)n4Cc4ccccc43)cc2OC)c1 [Example 283, {10-[(2,3′-Dimethoxy[1,1′-biphenyl]-4-yl)carbonyl]-10,11-dihydro-5H-pyrrolo[2,1-c][1,4]benzodiazepin-3-yl}[(3R)-3-(dimethylamino)pyrrolidinyl]methanone] | – | 29
4 | COc1cc(C(=O)N2Cc3ccc(C(=O)N4CC[C@@H](N(C)C)C4)n3Cc3ccccc32)ccc1-c1ccccc1C [Example 281, [(3R)-3-(Dimethylamino)pyrrolidinyl]{10-[(2-methoxy-2′-methyl[1,1′-biphenyl]-4-yl)carbonyl]-10,11-dihydro-5H-pyrrolo[2,1-c][1,4]benzodiazepin-3-yl}methanone] | – | −9
5 | COc1ccccc1-c1ccc(C(=O)N2Cc3ccc(C(=O)N4CCC(N5CCCCC5)CC4)n3Cc3ccccc32)cc1OC [Example 119, {10-[(2,2′-Dimethoxy-[1,1′-biphenyl]-4-yl)carbonyl]-10,11-dihydro-5H-pyrrolo[2,1-c][1,4]benzodiazepin-3-yl}[4-(1-piperidinyl)-1-piperidinyl]methanone] | 15 | –
6 | COc1cc2c(cc1OC)N(C(=O)c1ccc(-c3ccccc3C(F)(F)F)c(C)c1)Cc1ccc(C(=O)N3CCC(=O)CC3)n1C2 [Example 14, 7,8-Dimethoxy-10-{[2-methyl-2′-(trifluoromethyl)-[1,1′-biphenyl]-4-yl]carbonyl}-[(10,11-dihydro-5H-pyrrolo[2,1-c][1,4]benzodiazepin-3-yl)carbonyl]-4-piperidinone] | – | −3
7 | COc1cccc(-c2ccc(C(=O)N3Cc4ccc(C(=O)N5CCC(N6CCCCC6)CC5)n4Cc4ccccc43)cc2C)c1 [Example 114, {10-[(2-Methyl-3′-methoxy[1,1′-biphenyl]-4-yl)carbonyl]-10,11-dihydro-5H-pyrrolo[2,1-c][1,4]benzodiazepin-3-yl}[4-(1-piperidinyl)-1-piperidinyl]methanone] | 22 | –
8 | Cc1ccccc1-c1ccc(C(=O)N2Cc3ccc(C(=O)NCCN4CCCCC4)n3Cc3ccccc32)cc1 [Example 153, 10-[(2′-Methyl[1,1′-biphenyl]-4-yl)carbonyl]-N-[2-(1-piperidinyl)ethyl]-10,11-dihydro-5H-pyrrolo[2,1-c][1,4]benzodiazepine-3-carboxamide] | 11 | –
9 | COc1cccc(-c2cc(OC)c(C(=O)N3Cc4ccc(C(=O)N5CCC[C@H]5CN5CCCC5)n4Cc4ccccc43)cc2Cl)c1 [Example 268, {10-[(6-Chloro-3,3′-dimethoxy[1,1′-biphenyl]-4-yl)carbonyl]-10,11-dihydro-5H-pyrrolo[2,1-c][1,4]benzodiazepin-3-yl}[(2S)-2-(1-pyrrolidinylmethyl)pyrrolidinyl]methanone] | – | 34
10 | COc1cccc(-c2ccc(C(=O)N3Cc4ccc(C(=O)N5CCC[C@H]5CN5CCCC5)n4Cc4ccccc43)cc2OC)c1 [Example 270, {10-[(2,3′-Dimethoxy[1,1′-biphenyl]-4-yl)carbonyl]-10,11-dihydro-5H-pyrrolo[2,1-c][1,4]benzodiazepin-3-yl}[(2S)-2-(1-pyrrolidinylmethyl)pyrrolidinyl]methanone] | – | 25
11 | COc1cc(C(=O)N2Cc3ccc(C(=O)N4CC[C@@H](N(C)C)C4)n3Cc3ccccc32)ccc1-n1c(C)ccc1C [Example 322, [(3R)-3-(Dimethylamino)pyrrolidinyl]{10-[4-(2,5-dimethyl-1H-pyrrol-1-yl)-3-methoxybenzoyl]-10,11-dihydro-5H-pyrrolo[2,1-c][1,4]benzodiazepin-3-yl}methanone] | – | 24
12 | COc1cccc(-c2ccc(C(=O)N3Cc4ccc(C(=O)NCCCn5ccnc5)n4Cc4ccccc43)cc2C)c1 [Example 125, N-[3-(1H-Imidazol-1-yl)propyl]-10-[(3′-methoxy-2-methyl[1,1′-biphenyl]-4-yl)carbonyl]-10,11-dihydro-5H-pyrrolo[2,1-c][1,4]benzodiazepine-3-carboxamide] | 8 | –
13 | COc1ccccc1-c1ccc(C(=O)N2Cc3ccc(C(=O)NCCN4CCCCC4)n3Cc3ccccc32)cc1C [Example 149, 10-[(2′-Methoxy-2-methyl[1,1′-biphenyl]-4-yl)carbonyl]-N-[2-(1-piperidinyl)ethyl]-10,11-dihydro-5H-pyrrolo[2,1-c][1,4]benzodiazepine-3-carboxamide] | 20 | –
14 | O=C(c1ccc(-c2cccc3ccccc23)cc1Cl)N1Cc2ccc(C(=O)N3CCC[C@H]3CN3CCCC3)n2Cc2ccccc21 [Example 261, {10-[2-Chloro-4-(1-naphthyl)benzoyl]-10,11-dihydro-5H-pyrrolo[2,1-c][1,4]benzodiazepin-3-yl}[(2S)-2-(1-pyrrolidinylmethyl)pyrrolidinyl]methanone] | – | 18
15 | Cc1cc(C(=O)N2Cc3ccc(C(=O)NCCCn4ccnc4)n3Cc3ccccc32)ccc1-c1ccccc1C(F)(F)F [Example 135, N-[3-(1H-Imidazol-1-yl)propyl]-10-{[2-methyl-2′-(trifluoromethyl)[1,1′-biphenyl]-4-yl]carbonyl}-10,11-dihydro-5H-pyrrolo[2,1-c][1,4]benzodiazepine-3-carboxamide] | 1 | –
16 | COc1ccccc1-c1ccc(C(=O)N2Cc3ccc(C(=O)N4CCC(N5CCCC5)CC4)n3Cc3ccccc32)cc1OC [Example 145, {10-[(2,2′-Dimethoxy[1,1′-biphenyl]4-yl)carbonyl]-10,11-dihydro-5H-pyrrolo[2,1-c][1,4]benzodiazepin-3-yl}[4-(1-pyrrolidinyl)-l-piperidinyl]methanone] | – | −5
17 | COc1cccc(-c2ccc(C(=O)N3Cc4ccc(C(=O)N5CCC(N6CCCC6)CC5)n4Cc4ccccc43)cc2C)c1 [Example 139, {10-[(3′-Methoxy-2-methyl[1,1′-biphenyl]-4-yl)carbonyl]-10,11-dihydro-5H-pyrrolo[2,1-c][1,4]benzodiazepin-3-yl}[4-(1-pyrrolidinyl)-1-piperidinyl]methanone] | 12 | –
18 | Cc1cccc(N2CCN(C(=O)c3ccc4n3Cc3ccccc3N(C(=O)c3ccc(-c5ccccc5C(F)(F)F)c(C)c3)C4)CC2C)c1 (stereo not drawn) [Example 5, [3-Methyl-4-(3-methyl-phenyl)-piperazin-1-yl]-[10-(2-methyl-2′-trifluoromethyl-[1,1′-biphenyl]-4-yl)carbonyl]-10,11-dihydro-5H-pyrrolo[2,1-c][1,4]benzodiazepin-3-yl-methanone] | – | 3
